The results in this text go back to patent US20240279190A1, “COMPOUNDS FOR MODULATING PLATELET-TYPE 12-(S)-LIPOXYGENASE AND METHODS OF USE FOR SAME” (The Regents of The University of California, priority 2021, published 2024).

Test [1] concerns the target T1, 12-LOX mutant F414L (Homo sapiens, UniProt P18054, F414L).
T1 construct: 6xHis (N); made in house; pFastBac1 shuttle vector
T1 sequence (P18054 1-663 F414L): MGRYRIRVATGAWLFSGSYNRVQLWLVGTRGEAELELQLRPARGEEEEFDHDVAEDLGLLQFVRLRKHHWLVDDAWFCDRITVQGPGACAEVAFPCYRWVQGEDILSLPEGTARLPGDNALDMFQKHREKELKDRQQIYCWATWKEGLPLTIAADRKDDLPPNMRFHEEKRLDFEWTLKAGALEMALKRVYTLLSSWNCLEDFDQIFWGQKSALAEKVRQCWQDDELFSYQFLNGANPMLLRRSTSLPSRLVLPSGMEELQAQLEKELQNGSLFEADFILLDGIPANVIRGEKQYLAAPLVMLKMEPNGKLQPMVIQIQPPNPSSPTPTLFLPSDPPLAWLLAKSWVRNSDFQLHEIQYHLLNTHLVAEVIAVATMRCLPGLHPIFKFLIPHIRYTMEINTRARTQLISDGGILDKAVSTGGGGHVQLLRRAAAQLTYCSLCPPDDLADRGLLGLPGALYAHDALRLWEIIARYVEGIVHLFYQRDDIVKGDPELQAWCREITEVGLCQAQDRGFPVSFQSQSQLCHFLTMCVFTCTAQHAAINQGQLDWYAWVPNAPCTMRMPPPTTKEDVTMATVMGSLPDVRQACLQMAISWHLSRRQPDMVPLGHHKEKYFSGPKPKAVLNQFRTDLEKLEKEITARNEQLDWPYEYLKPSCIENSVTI
In words: UV-Vis-based IC50 assay, F414L mutant. Format: biochemical. The text has this: Based on the ML355 binding mode predicted by the modeling, all residues within 5 Å of any atom of ML355 were selected for experimental mutagenesis. The selected residues were replaced with amino acids with either bulkier or smaller side chains in order to determine what specific interactions play a role in inhibitor binding. […] The numbering refers to the UniProt accession number P18054 sequence, with the N-terminal methionine assigned as amino acid number one. The primers for all mutants were designed using the online QuikChange Primer Design tool (http://www.genomics.agilent.com/primerDesignProgram.jsp) from Agilent Technologies (CA, USA). The mutations were introduced by using the QuikChange® II XL site-directed mutagenesis kit from Agilent, following the instructions in the protocol provided. […]
The wild type 12-LOX (wt-12-LOX) enzyme and its mutants were expressed as fusion proteins, with an N-terminal 6×His tag, and were affinity purified by nickel-iminodiacetic acid agarose using FPLC (Biorad).
The percent inhibition was determined by comparing the enzyme rates of the control (DMSO solvent) and the inhibitor sample by following the formation of the conjugated diene product at 234 nm (ε=25,000 M^−1cm^−1). […] The substrate concentration was quantitatively determined by allowing the enzymatic reaction to go to completion in the presence of soybean LOX-1. […]

Test [2] relates to other LOX isozymes (h5-LOX, h15-LOX-1, h15-LOX-2). In words: Inhibitor selectivity against other LOX isozymes. Format: biochemical, human. The text has this: The wild type 12-LOX (wt-12-LOX) enzyme and its mutants were expressed as fusion proteins, with an N-terminal 6×His tag, and were affinity purified by nickel-iminodiacetic acid agarose using FPLC (Biorad). For inhibitor selectivity, human 5-LOX (h5-LOX, UniProt entry P09917), human reticulocyte 15-LOX-1 (h15-LOX-1, UniProt entry P16050) and human epithelial 15-LOX-2 (h15-LOX-2, UniProt entry 015296) were also isolated. The purity of all the proteins, except h5-LOX, was greater than 90% as determined by SDS-PAGE analysis. h5-LOX was an ammonium sulfate fraction due to the extensive loss of activity upon purification.
IC50 values of ML355 against 12-LOX and its mutants were determined in a similar manner as the steady state kinetic values. The percent inhibition was determined by comparing the enzyme rates of the control (DMSO solvent) and the inhibitor sample by following the formation of the conjugated diene product at 234 nm (ε=25,000 M^−1cm^−1). The reactions were initiated by adding 200 nM 15-LOX-2, 30 nM 12-LOX, 40 nM 15-LOX-1, or approximately 100-300 nM (total protein) of 5-LOX ammonium sulfate fraction to a cuvette with 2 mL reaction buffer, constantly stirred using a magnetic stir bar at room temperature (22° C.). […] The substrate concentration was quantitatively determined by allowing the enzymatic reaction to go to completion in the presence of soybean LOX-1. […]

Structures are written as SMILES.

Compound `COc1cccc(CNc2ccc(S(=O)(=O)Nc3nc4c(ccc5ccccc54)s3)cc2)c1O` [Compound LOX-12-001, 4-((2-hydroxy-3-methoxybenzyl)amino)-N-(naphtho[1,2-d]thiazol-2-yl)benzenesulfonamide] displayed an IC50 in test [1] (F414L) of 180 ± 10 nM. Further, in test [1] (F414L vs wt12-LOX), the “fold increase in IC50 compared to wt12-LOX” value is reported as 3.6 fold. The “selectivity against other LOX isozymes” value in test [2] is “maintained”.
